Results: patent US20240246905A1 (University of Leicester, priority 2021, published 2024)
In brackets after ≈: the same amount, converted by molar mass.

Key:
MRSA 252 [1] = assay: MIC, broth micro-dilution; type: cell-based, Staphylococcus aureus; settings: Staphylococcus aureus, read-out: MIC
Procedure: (§1) E. coli DH5α, P. aeruginosa PA01 and the 53 S. aureus strains were recovered from frozen (−80° C.) glycerol (15% v/v) stocks on Lysogeny agar (LA)—Gram negative and trypticase soy agar (TSA)—plates at 37° C. for 24 hours. Single colonies were placed in either 3 mL Lysogeny broth (LB)—Gram negative or trypticase soy broth (TSB)—Gram positive and incubated at 37° C., 250 rpm for 18 hours.
(§2) Antibiotic MIC's were determined by a broth micro-dilution method according to Clinical Standard Laboratory Institute (CSLI) Guidelines (2017). Briefly, 96-well microplates, each containing 195 μL of the 1:2 dilution antibiotic in TSB, were inoculated with 5 μL of overnight cultured bacteria, diluted to give a starting bacterial concentration of 5×10^5 CFU/mL. The optical density of each well inoculated was recorded every 12 minutes over an 18 hour period at 37° C. The data from this was plotted in OriginPro8 (OriginLab) and sigmoidal curves fitted using the dose response function. Fitted values for each curve were used to calculate the MIC.

MSSA 476 [2] = assay: MIC, broth micro-dilution; type: cell-based, Staphylococcus aureus; settings: Staphylococcus aureus, MSSA, read-out: MIC
Procedure: as §1, §2

MRSA 252 [3] = assay: Disc diffusion (Kirby-Bauer), zone of inhibition; type: cell-based, Staphylococcus aureus; settings: Staphylococcus aureus, 500 μg/mL, '/' = no zone, read-out: Zone of inhibition
Procedure: as §1
(§3) The antibiotic activity was determined using a Kirby-Bauer method according to Clinical Standard Laboratory Institute (CSLI) Guidelines (2017). Briefly, 180 μL of a 1 in 200 dilution (in LB or TSB) of overnight cultures of selected Gram negative and Gram positive bacteria were applied to an agar plate containing the solid growth medium, Mueller-Hinton agar (MHA). Sterile discs, inoculated with 50 μL of antibiotic, were first added to the agar plate before the plates were incubated for 24 hours at 37° C. Following incubation, the zone of inhibition (if it existed) was recorded.

MSSA 476 [4] = assay: Disc diffusion (Kirby-Bauer), zone of inhibition; type: cell-based, Staphylococcus aureus; settings: Staphylococcus aureus, 500 μg/mL, '/' = no zone, read-out: Zone of inhibition
Procedure: as §1, §3

[5] = test system: Staphylococcus aureus 15981; assay: Disc diffusion (Kirby-Bauer), zone of inhibition; type: cell-based; settings: Staphylococcus aureus 15981; 500 μg/mL; '/' = no zone; read-out: Zone of inhibition
Procedure: as §1, §3

[6] = test system: various Staphylococcus aureus strains; assay: Disc diffusion, Staphylococcus aureus strain study; type: cell-based; settings: Staphylococcus aureus, 500 μg/mL
Source text: At this point in the study it was decided to perform a disc diffusion assay study on 50 S. aureus strains. […] Moreover, by employing a range of mutant strains of S. aureus with specific gene-deletions, it was believed that if particular strains were resistant to the lead compounds, it could provide insights on the likely protein target of the lead antibiotics. However, all six of the compounds utilized in this study were able to inhibit growth of all 50 strains of S. aureus assayed at the chosen concentration of 500 μg/mL concentration (Table 5).
as §1, §3

HEK293 cells = assay: Cytotoxicity assay, resazurin (CO-ADD)
Procedure: The cytotoxicity studies were performed by CO-ADD (The Community for Open Antimicrobial Drug Discovery), funded by the Wellcome trust (UK) and the University of Queensland, Australia.^(28) In this study, the compounds were screened against a human embryonic kidney cell line, HEK293, at a set concentration of 32 μg/mL.
DMEM supplemented with 10% FBS was used as growth media and the cells were incubated together with the compounds for 20 hours at 37° C. in 5% CO2.
Cytotoxicity (or cell viability) was measured by fluorescence, excitation: 560/10 nm, emission: 590/10 nm (F560/590), after addition of 5 μL of 25 μg/mL Resazurin (2.3 μg/mL final concentration) and after incubation for further 3 h at 37° C. in 5% CO2. The fluorescence intensity was measured using a Tecan M1000 Pro monochromator plate reader, using automatic gain calculation CC50 (concentration at 50% cytotoxicity) were calculated by curve fitting the inhibition values vs. log(concentration) using sigmoidal dose-response function, with variable fitting values for bottom, top and slope. The curve fitting was implemented using Pipeline Pilot's dose-response component.

red blood cells = assay: Hemolysis assay (CO-ADD); type: cell-based; settings: 32 μg/mL highest concentration tested
Source text: A problem often encountered by emerging drugs is hemolysis, also known as drug-induced immune hemolytic anemia.

## [C-]#[N+]C=Cc1cc(Br)ccc1O [Compound 13]
MRSA 252 [1]
  MIC: 35 µg/mL (≈ 156 µM)
MSSA 476 [2]
  MIC: 145 µg/mL (≈ 647 µM)
MRSA 252 [3]
  zone of inhibition at 500 µg/mL: 22 mm
MSSA 476 [4]
  zone of inhibition at 500 µg/mL: 22 mm
[5]
  zone of inhibition at 500 µg/mL: 18 mm
[6]; strain ASARM 61
  zone of inhibition at 500 µg/mL: 20 mm
[6]; strain ASARM 70
  zone of inhibition at 500 µg/mL: 20 mm
[6]; strain ASARM 71
  zone of inhibition at 500 µg/mL: 20 mm
[6]; strain ASARM 72
  zone of inhibition at 500 µg/mL: 16 mm
[6]; strain ASARM 73
  zone of inhibition at 500 µg/mL: 20 mm
[6]; strain ASARM 75
  zone of inhibition at 500 µg/mL: 20 mm
[6]; strain ASARM 76
  zone of inhibition at 500 µg/mL: 20 mm
[6]; strain ASARM 77
  zone of inhibition at 500 µg/mL: 20 mm
[6]; strain ASARM 79
  zone of inhibition at 500 µg/mL: 20 mm
[6]; strain ASARM 80
  zone of inhibition at 500 µg/mL: 18 mm
[6]; strain EOE 3
  zone of inhibition at 500 µg/mL: 24 mm
[6]; strain EOE 23
  zone of inhibition at 500 µg/mL: 22 mm
[6]; strain EOE 30
  zone of inhibition at 500 µg/mL: 22 mm
[6]; strain EOE 35
  zone of inhibition at 500 µg/mL: 22 mm
[6]; strain EOE 41
  zone of inhibition at 500 µg/mL: 20 mm
[6]; strain EOE 42
  zone of inhibition at 500 µg/mL: 20 mm
[6]; strain EOE 45
  zone of inhibition at 500 µg/mL: 24 mm
[6]; strain EOE 52
  zone of inhibition at 500 µg/mL: 22 mm
[6]; strain EOE 54
  zone of inhibition at 500 µg/mL: 22 mm
[6]; strain EOE 57
  zone of inhibition at 500 µg/mL: 25 mm
[6]; strain S139_7_7
  zone of inhibition at 500 µg/mL: 24 mm
[6]; strain S197_1_1
  zone of inhibition at 500 µg/mL: 26 mm
[6]; strain S197_1_8
  zone of inhibition at 500 µg/mL: 20 mm
[6]; strain S197_1_9
  zone of inhibition at 500 µg/mL: 20 mm
[6]; strain S197_1_10
  zone of inhibition at 500 µg/mL: 20 mm
[6]; strain S295_1_1
  zone of inhibition at 500 µg/mL: 22 mm
[6]; strain S295_1_2
  zone of inhibition at 500 µg/mL: 20 mm
[6]; strain S295_1_3
  zone of inhibition at 500 µg/mL: 20 mm
[6]; strain S364_5_11
  zone of inhibition at 500 µg/mL: 20 mm
[6]; strain S364_5_12
  zone of inhibition at 500 µg/mL: 25 mm
[6]; strain Sa_TPS 3026
  zone of inhibition at 500 µg/mL: 20 mm
[6]; strain Sa_TPS 3072
  zone of inhibition at 500 µg/mL: 21 mm
[6]; strain Sa_TPS 3092
  zone of inhibition at 500 µg/mL: 20 mm
[6]; strain Sa_TPS 3097
  zone of inhibition at 500 µg/mL: 20 mm
[6]; strain Sa_TPS 3103
  zone of inhibition at 500 µg/mL: 20 mm
[6]; strain Sa_TPS 3104
  zone of inhibition at 500 µg/mL: 22 mm
[6]; strain Sa_TPS 3106
  zone of inhibition at 500 µg/mL: 16 mm
[6]; strain Sa_TPS 3118
  zone of inhibition at 500 µg/mL: 22 mm
[6]; strain Sa_TPS 3133
  zone of inhibition at 500 µg/mL: 20 mm
[6]; strain Sa_TPS 3134
  zone of inhibition at 500 µg/mL: 18 mm
[6]; strain USFL 008
  zone of inhibition at 500 µg/mL: 18 mm
[6]; strain USFL 009
  zone of inhibition at 500 µg/mL: 22 mm
[6]; strain USFL 012
  zone of inhibition at 500 µg/mL: 22 mm
[6]; strain USFL 016
  zone of inhibition at 500 µg/mL: 20 mm
[6]; strain USFL 018
  zone of inhibition at 500 µg/mL: 20 mm
[6]; strain USFL 020
  zone of inhibition at 500 µg/mL: 20 mm
[6]; strain USFL 021
  zone of inhibition at 500 µg/mL: 22 mm
[6]; strain USFL 028
  zone of inhibition at 500 µg/mL: 22 mm
[6]; strain USFL 035
  zone of inhibition at 500 µg/mL: 22 mm
[6]; strain USFL 054
  zone of inhibition at 500 µg/mL: 22 mm
HEK293 cells; HEK 293
  Concentration toxic to HEK 293 cells: >32000 ng/mL
HEK293 cells; set concentration of 32 μg/mL
  toxicity towards the HEK293 cell line (in words): no toxicity
Red blood cells
  Hemolytic activity (HC10): >32 µg/mL
